How the values were obtained:
Assay type in all cases: cell-based, human
[1] = test system: hPSC-derived ventral midbrain dopaminergic progenitors; assay: Specification of caudal midbrain identity (EN1 immunocytochemistry); settings: RA^2D+SAG
Experimental: (a) (a) Immunocytochemical analysis of ventral MB progenitor identities at 14 DDC. […] Nuclei of cells visualized with DAPI staining. (b) Immunocytochemistry of dopaminergic neuron marker TH and caudal midbrain marker EN1 expression in 40 DDC cultures differentiated in indicated conditions.
(§1) Cells were fixed for 12 min at room temperature (RT) in 4% paraformaldehyde in PBS, rinsed 3 times in PBST (PBS with 0.1% Triton-X100), and blocked for 1 hour at RT with blocking solution (3% FCS/0.1% Triton-X100 in PBS). Cells were then incubated with primary antibodies overnight at 4° C., followed by incubation with fluorophore-conjugated secondary antibodies for 1 hour at RT. Both primary and fluorophore-conjugated secondary antibodies were diluted in blocking solution. Primary antibodies used are listed in Supplementary Table 1. Appropriate Alexa (488, 555, 647)-conjugated secondary antibodies (Molecular Probes) were used.
Mechanisms underlying specification of midbrain dopamine neuron subtypes remains poorly resolved, but is likely to involve sub-patterning of ventral midbrain dopaminergic progenitors along the mediolateral and rostro-caudal axes of the midbrain (Brignani, S, and Pasterkamp, R. J., Front. Neuroanat. 11, 1-18 (2017)). WNT1 signaling emanating from the isthmic organizer at the midbrain-hindbrain boundary establish polarity of midbrain progenitors along the rostro-caudal axis by inducing a caudal^HIGH-to-rostral^LOW expression gradient of the homeodomain proteins EN1 and EN2 (Wurst, W. and Bally-Cuif, L. Nat. Rev. Neuroscience 2, 99-108 (2001)).

β-catenin = assay: β-CATENIN nuclear levels in cultures at 2 DDC; settings: dSMADi+SAG
Description: FIG. 2: Specification of NSC with ventral midbrain identity using RA and SHH signaling. (a) Schematic of hPSCs differentiation with timeline of treatment with RA and activator of SHH signaling (SAG) (top). Immunocytochemistry for indicated markers at 9 DDC in cultures differentiated in dSMADi+SAG-condition and pulsed with RA for 1-, 2- or 4-days (bottom). (b) Relative gene expression (FPKM) of indicated genes in 9 DDC cultures differentiated in dSMADi+SAG-conditions and treated with RA for the indicated time. (c) Heatmap and hierarchical clustering of differentially expressed genes of 9 DDC cultures differentiated in dSMADi+SAG-condition and treated with RA for the indicated time. (d) Schematic of gene expression profiles defining distinct ventral progenitors in the diencephalon (Di), midbrain (MB) and hindbrain (HB) positions. (e) Expression of genes associated with the indicated regional progenitors at 14 DDC in cultures differentiated in dSMADi+SAG+RA^2D condition. (f) Immunocytochemistry for β-CATENIN (left) and boxplots of β-CATENIN nuclear levels (right) in cultures at 2 DDC differentiated in dSMADi+SAG-condition (control) and treated with RA or CHIR99021. Boxplot, whiskers define 5th and 95th percentile. Asterisks, Student t test; **p<0.01, ***p<0.001. (g) Immunocytochemistry for the indicated markers in cultures at 14 DDC differentiated in dSMADi+SAG+RA^2D condition. […]

hPSC-derived NSCs = assay: Regional identity of hPSC-derived NSCs at 9 DDC after RA pulse in dSMADi conditions
Experimental: as §1

CC1=C(/C=C/C(C)=C/C=C/C(C)=C/C(=O)O)C(C)(C)CCC1 [RA, all-trans retinoic acid]
identity of ventral midbrain progenitors (EN1) ([1]; 14DDC): LMX1A^+/OTX2^+/EN1^− identity | EN1 expression in TH+ dopamine neurons ([1]; 40DDC): a small proportion of TH^+ dopamine neurons expressed EN1 | β-catenin in nuclei (β-catenin): no accumulation of β-catenin in nuclei | regional identity of NSCs (hPSC-derived NSCs; 200 nM RA for 1 day (RA^1D)): FB-like character | regional identity of NSCs (hPSC-derived NSCs; 200 nM RA for 2 days (RA^2D)): FOXG1^−/OTX2^+/HOXA2^− MB-like character | regional identity of NSCs (hPSC-derived NSCs; 200 nM RA for 3 days (RA^3D)): FOXG1^−/OTX2^−/HOXA2^+/HOXB4^− rostral HB | regional identity of NSCs (hPSC-derived NSCs; 200 nM RA for 4 days (RA^4D)): FOXG1^−/OTX2^−/HOXA2^+/HOXB4^+ caudal HB

Source: patent US20230233617A1, “METHODS FOR DIFFERENTIATING STEM CELLS INTO DOPAMINERGIC PROGENITOR CELLS” (JZ CELL TECHNOLOGIES AB, priority 2020, published 2023)
